Reference: patent US20210330611A1, “THERAPY FOR NEUROLOGICAL DISEASES/DISORDERS” (priority 2020, published 2021)
Where a name gives a salt, the structure may show the parent alone. Read-outs that look alike come from different tables or passages of the source.

What was measured:
[1] = tested on: fibrin-induced microglia activation; assay: Image-based assay of fibrin-induced microglia activation (HTS and dose response); format: cell-based, rat; details: primary microglia HTS, fibrin stimulation; for inhibition at 10 µM: Rattus norvegicus, Microglia, read-out: Fibrin % inhibition
[2] = tested on: LPS-induced microglia activation; assay: Image-based assay of LPS-induced microglia activation (HTS and dose response); format: cell-based, rat; details: for inhibition at 10 µM: Rattus norvegicus, Microglia, read-out: LPS % inhibition
[3] = tested on: fibrin- and LPS-induced microglia activation; assay: cells; format: cell-based, rat
primary rat microglia [4] = tested on: primary rat microglia
primary rat microglia [5] = assay: Cell toxicity (dead cells, size <150 μm2) in coated fibrin (cFib) assay; details: primary microglia HTS;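 also: share of dead cells sized under 150 µm2 at 10 µM in fibrin-stimulated microglia HTS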
[6] = primary microglia HTS, LPS stimulation, compounds at 10 μM
[7] = quadrant by fibrin and LPS inhibition, HTS at 10 μM
[8] = fibrin assay, dead cells (size <150 μm2)
[9] = cell size >800 μm2 as marker of activation
[10] = classification by fibrin and LPS inhibition in HTS
[11] = fibrin stimulation, cell size <150 μm2 as marker of toxicity
[12] = classification by fibrin and LPS inhibition, HTS at 10 μM
[13] = fibrin assay, dead cells (size <150 μm2), compounds at 10 μM

| Compound | inhibition at 10 µM ([1]; compounds at 10 μM) | inhibition at 10 µM [2, 6] | Quadrant (FIG. 5b) [3, 7] | LPS % cell toxicity (primary rat microglia [4]; rat) | Fibrin % cell toxicity (primary rat microglia [5]; [8]) | Quadrant (FIG. 5b) [3, 12] | Fibrin % cell toxicity (primary rat microglia [5]; [13]) | other results |
| --- | --- | --- | --- | --- | --- | --- | --- | --- |
| CC1(C)C(C=C(Cl)Cl)C1C(=O)OC(C#N)c1cccc(Oc2ccccc2)c1 (stereo not drawn) [Alpha-cypermethrin] | -15% | 11% | Q4 | 0% | 1% | – | – | – |
| CC(C)c1ccc2oc3nc(N)c(C(=O)O)cc3c(=O)c2c1 [Amlexanox] | -17% | -4% | Q4 | 0% | 0% | – | – | – |
| CCOC(=O)[C@H](CCc1ccccc1)N[C@@H](C)C(=O)N1Cc2ccccc2C[C@H]1C(=O)O [Quinapril] | – | – | – | 0% | – | – | – | inhibition at 10 µM [1, 9]: -24%; inhibition at 10 µM ([2]; 48 h): 13%; Quadrant (FIG. 5b) [3, 10]: Q4; Fibrin % cell toxicity (primary rat microglia [5]; [11]): 1% |
| CCC1(c2ccccc2)C(=O)NC(=O)NC1=O [Phenobarbital] | – | – | – | 0% | – | – | – | inhibition at 10 µM [1, 9]: -22%; inhibition at 10 µM ([2]; 48 h): -7%; Quadrant (FIG. 5b) [3, 10]: Q4; Fibrin % cell toxicity (primary rat microglia [5]; [11]): 0% |
| CCOC(N)=O [Ethyl carbamate] | 44% | 27% | – | 0% | – | Q4 | 1% | – |
| CC(CC(C(N)=O)(c1ccccc1)c1ccccc1)N(C)C (stereo not drawn) [Aminopentamide Sulfate] | 3% | 12% | Q4 | 0% | 1% | – | – | – |
| Cn1c(=O)c2c(ncn2CC(O)CO)n(C)c1=O (stereo not drawn) [Dyphylline] | -7% | -6% | – | 0% | – | Q4 | 0% | – |
| CC[N+](C)(C)c1cccc(O)c1 [Edrophonium] | -9% | -2% | – | 0% | – | Q4 | 1% | – |
| CN1CCC(=C2c3ccccc3CCc3cccnc32)CC1 [Azatadine] | -9% | 7% | Q4 | 0% | 1% | – | – | – |
| Nc1ncnc2c1ncn2[C@@H]1O[C@H](COP(=O)(O)O)[C@@H](O)[C@H]1O [Adenosine Phosphate] | – | – | Q4 | 2% | 1% | – | – | Fibrin % inhibition ([1]; compounds at 10 μM, 10 µM): 6%; LPS % inhibition ([2]; primary microglia HTS, LPS stimulation, compounds at 10 μM, 10 µM): 31% |
| CCOc1ccc2nc(S(N)(=O)=O)sc2c1 [Ethoxzolamide] | 29% | 16% | – | 1% | – | Q4 | 1% | – |
| N[C@H](Cc1ccccc1)C(=O)O [D-phenylalanine] | 1% | 23% | – | 0% | – | Q4 | 1% | – |
| CC(=O)[C@H]1CC[C@H]2[C@@H]3CC[C@@H]4C[C@H](O)CC[C@]4(C)[C@H]3CC[C@]12C [Eltanolone] | -6% | 4% | – | 0% | – | Q4 | 1% | – |
| CC(=O)NS(=O)(=O)c1ccc(NC(=O)c2ccccc2C(=O)O)cc1 [Phthalylsulfacetamide] | – | – | – | 0% | – | – | – | inhibition at 10 µM [1, 9]: 1%; inhibition at 10 µM ([2]; 48 h): -1%; Quadrant (FIG. 5b) [3, 10]: Q4; Fibrin % cell toxicity (primary rat microglia [5]; [11]): 1% |
| CN(C)C(=O)Oc1ccc[n+](C)c1 [Pyridostigmine] | – | – | – | 0% | – | – | – | inhibition at 10 µM [1, 9]: 4%; inhibition at 10 µM ([2]; 48 h): 9%; Quadrant (FIG. 5b) [3, 10]: Q4; Fibrin % cell toxicity (primary rat microglia [5]; [11]): 1% |
| COc1ccc(C2C(=O)c3ccccc3C2=O)cc1 [Anisindione] | -15% | 13% | Q4 | 0% | 0% | – | – | – |
| O=C(O)CCCCCCCC(=O)O [Azelaic Acid] | 6% | 19% | Q4 | 0% | 0% | – | – | – |
| O=C1Nc2ccc(Cl)cc2[C@@](C#CC2CC2)(C(F)(F)F)O1 [Efavirenz] | -7% | -5% | – | 0% | – | Q4 | 1% | – |
| COCCCOc1cc(C[C@@H](C[C@H](N)[C@@H](O)C[C@H](C(=O)NCC(C)(C)C(N)=O)C(C)C)C(C)C)ccc1OC [Aliskiren] | 2% | 21% | Q4 | 0% | 1% | – | – | – |
| Cc1c(NC(=O)c2cccnc2)c(=O)n(-c2ccccc2)n1C [Nifenazone] | 114% | 132% | Q2 | 78% | 85% | – | – | – |
| CCOC(=S)SSC(=S)OCC [Dixanthogen] | 4% | 17% | – | 0% | – | Q4 | 1% | – |
| CCOc1ccc(Cc2nccc3cc(OCC)c(OCC)cc23)cc1OCC [Ethaverine Hydrochloride] | 41% | 24% | – | 1% | – | Q4 | 1% | – |
| CCCOc1ccc(C(=O)OCCN(CC)CC)cc1N [Proparacaine] | – | – | – | 0% | – | – | – | inhibition at 10 µM [1, 9]: -6%; inhibition at 10 µM ([2]; 48 h): 13%; Quadrant (FIG. 5b) [3, 10]: Q4; Fibrin % cell toxicity (primary rat microglia [5]; [11]): 1% |
| CC(C)(Sc1cc(C(C)(C)C)c(O)c(C(C)(C)C)c1)Sc1cc(C(C)(C)C)c(O)c(C(C)(C)C)c1 [Probucol] | – | – | – | 0% | – | – | – | inhibition at 10 µM [1, 9]: 12%; inhibition at 10 µM ([2]; 48 h): -1%; Quadrant (FIG. 5b) [3, 10]: Q4; Fibrin % cell toxicity (primary rat microglia [5]; [11]): 0% |
| C[C@@](Cc1ccc(O)c(O)c1)(NN)C(=O)O [S-(−)-carbidopa, Carbidopa] | – | – | – | – | – | – | – | Fibrin % inhibition [1, 9]: −91%; LPS % inhibition [2]: 16%; Quadrant (FIG. 5b) [3, 10]: Q4; LPS % cell toxicity (primary rat microglia [4]): 0%; Fibrin % cell toxicity (primary rat microglia [5]; [11]): 0% |
| C=CCOC(Cn1ccnc1)c1ccc(Cl)cc1Cl (stereo not drawn) [Enilconazole] | 24% | 15% | – | 1% | – | Q4 | 1% | – |
| Acetophenazine Maleate | – | – | Q4 | – | 1% | – | – | Fibrin % inhibition ([1]; compounds at 10 μM): 34%; LPS % inhibition [2, 6]: 15%; LPS % cell toxicity (primary rat microglia [4]): 0% |
| Nc1ccc(C(=O)O)cc1 [4-Aminobenzoic Acid] | -31% | 13% | Q4 | 1% | 1% | – | – | – |
| CC1(C)OC(=O)NC1=O [Dimethadione] | -13% | 14% | – | 0% | – | Q4 | 1% | – |
| Nc1nc(NC2CC2)c2ncn([C@H]3C=C[C@@H](CO)C3)c2n1 [Abacavir Sulfate] | -2% | 3% | Q4 | 0% | 1% | – | – | – |
